# Patent US20230220480A1, “IRON-SCORE AND IN VITRO METHOD FOR IDENTIFYING HIGH RISK DLBCL SUBJECTS AND THERAPEUTIC USES AND METHODS” (CENTRE NATIONAL DE LA RECHERCHE SCIENTIFIQUE (CNRS), priority 2019, published 2023)
# How the values were obtained:
# Format in all cases: cell-based, human
# DLBCL cells [1] = test: Ferroptosis, Bodipy-C11 staining and ferrostatin-1 rescue
# SU-DHL-4 = test: Cell viability assay (CellTiter-Glo, ATP quantification); settings: SU-DHL-4 (GCB), 96H
# Excerpt: (§1) The 16 DLBCL cell lines (U2932, OCI-LY-3, NU-DHL-1, OCI-LY-19, DB, SUDHL4, OCILY1, SUDHL5, DOHH2, SUDHL10, HT, RI-1, SU-DHL-6, NUDUL-1, WSU-DLCL-2 and OCI-LY-7) were purchased from the DSMZ (Leibniz-Institut DSMZ—Deutsche Sammlung von Mikroorganismen und Zellkulturen GmbH, Germany). They were maintained in RPMI-1640 (Gibco, Invitrogen), supplemented with 10% fetal bovine serum (PAA laboratory GmbH) for U2932, SUDHL-4, HT, DOHH2, SUDHL-10, RI-1, WSU-DLCL-2 cell lines, 20% FBS OCI-LY3, DB, SUDHL-5, NUDHL-1, SU-DHL-6, NUDUL-1 cell lines. OCI-LY1 and OCI-LY7 were cultured in IMDM (Gibco, Invitrogen), supplemented with 20% fetal bovine serum and OCI-LY19 was cultured in MEM alpha modified (Gibco, Invitrogen), supplemented with 20% fetal bovine serum. Cultures were maintained at 37° C. in a humidified atmosphere with 5% CO2.
# (§2) DLBCL-derived cell lines were cultured for 4 days in 96-well flat-bottom microtiter plates in RPMI 1640 medium, 10% or 20% FCS (control medium) in the presence of various compounds. The number of viable cells in culture was determined using the CellTiter-Glo Luminescent Cell Viability Assay from Promega, Madison, Wis., USA using a Centro LB 960 luminometer (Berthold Technologies, Bad Wildbad, Germany).
# (§3) This test is based on quantitation of the intracellular ATP present, which signals the presence of metabolically active cells. Data are expressed as the mean percentage of six replicates, normalized to the untreated control.
# (§4) We extending the analyses to a large panel of 16 DLBCL cell lines. The panel of 16 DLBCL cell lines were incubated with increasing concentrations of Ironomycin or vehicle for 96H. Table 7 hereunder presents the inhibitory concentration 50% (IC50) of Ironomycin for the 16 DLBCL cell-lines.
# DOHH-2 = test: as above; settings: DOHH-2 (GCB), 96H
# Excerpt: as §1, §2, §3, §4
# RI-1 = test: as above; settings: RI-1 (ABC), 96H
# Excerpt: as §1, §2, §3, §4
# HT = test: as above; settings: HT (GCB), 96H
# Excerpt: as §1, §2, §3, §4
# SU-DHL-6 = test: as above; settings: SU-DHL-6 (GCB), 96H
# Excerpt: as §1, §2, §3, §4
# OCI-LY19 = test: as above; settings: OCI-LY19 (GCB), 96H
# Excerpt: as §1, §2, §3, §4
# WSU-DLCL-2 = test: as above; settings: WSU-DLCL-2 (GCB), 96H
# Excerpt: as §1, §2, §3, §4
# NU-DHL-1 = test: as above; settings: NU-DHL-1 (GCB), 96H
# Excerpt: as §1, §2, §3, §4
# OCI-LY1 = test: as above; settings: OCI-LY1 (GCB), 96H
# Excerpt: as §1, §2, §3, §4
# OCI-LY7 = test: as above; settings: OCI-LY7 (GCB), 96H
# Excerpt: as §1, §2, §3, §4
# NU-DUL-1 = test: as above; settings: NU-DUL-1 (ABC), 96H
# Excerpt: as §1, §2, §3, §4
# SU-DHL-10 = test: as above; settings: SU-DHL-10 (GCB), 96H
# Excerpt: as §1, §2, §3, §4
# DLBCL cells [2] = test: DNA double strand breaks, Phospho-H2A.X (Ser139) foci and western blot; settings: 24 hours
# Description: DSB induction was monitored by Phospho-H2A·X (Ser139) staining and nuclei were stained with DAPI. Foci were visualized by fluorescence microscopy. Original magnification X 63. Scale bar: 10 μm.
# Cells were treated with iron chelators (80 μM Deferasirox), and Ironomycin (20 nM and 100 nM) during 24H. Protein levels of Phospho-H2A·X (S139) were analyzed by western blot (D)
# At least 300 cells were counted for each group. Statistical difference was tested using a Fisher's exact test. * P<0.05, ** P<0.01, *** P<0.001, **** P<0.0001. NS: non-significant.
compound,measurement,setting,value
C#CCN[C@@H]1C=C[C@]2(O[C@H]([C@@H](CC)C(=O)[C@@H](C)[C@@H](O)[C@H](C)[C@@H]3O[C@@H]([C@@H](CC)C(=O)O)CC[C@@H]3C)[C@@H](C)C[C@H]2C)O[C@@]12CC[C@@](C)([C@H]1CC[C@](O)(CC)[C@H](C)O1)O2 [Ironomycin],prevention of induced cell death by ferrostatin-1,DLBCL cells [1],partially prevented
same,rescue of toxicity by combination of Oph-Q-VD and Fer-1,DLBCL cells [1],could not completely abrogate
same,induction of ferroptosis (lipid peroxidation),DLBCL cells [1]; Bodipy-C11 staining,induces ferroptosis
same,IC50,SU-DHL-4,7.2 nM
same,IC50,DOHH-2,91.5 nM
same,IC50,RI-1,30.2 nM
same,IC50,HT,24.1 nM
same,IC50,SU-DHL-6,32.8 nM
same,IC50,OCI-LY19,46.9 nM
same,IC50,WSU-DLCL-2,30.7 nM
same,IC50,NU-DHL-1,50.5 nM
same,IC50,OCI-LY1,20.3 nM
same,IC50,OCI-LY7,51.6 nM
same,IC50,NU-DUL-1,13.7 nM
same,IC50,SU-DHL-10,36.5 nM
same,"DNA double strand breaks (γH2AX foci, H2AX phosphorylation)",DLBCL cells [2],induced DNA double strand breaks
